Test results from patent publication US20180312473A1, “PHENAZINE DERIVATIVES AS ANTIMICROBIAL AGENTS” (priority 2015, published 2018).
Values after ≈ are worked out from the molar mass of the structure shown. Read-outs that look alike come from different tables or passages of the source.

How the values were obtained:
[1] = system: MRSA-2 (methicillin-resistant Staphylococcus aureus clinical isolate); assay: MIC assay (broth microdilution, CLSI); format: cell-based; settings: Staphylococcus aureus, MRSA, read-out: MIC, MRSA-2
[2] = system: MRSA-1 (methicillin-resistant Staphylococcus aureus clinical isolate); assay: MIC assay (broth microdilution, CLSI); format: cell-based; settings: Staphylococcus aureus, MRSA, Table 2A; read-out: MIC, MRSA-1
[3] = system: Staphylococcus epidermidis (ATCC 12228); assay: MIC assay (broth microdilution, CLSI); format: cell-based; settings: Staphylococcus epidermidis, ATCC12228
[4] = system: Staphylococcus epidermidis (ATCC 35984), MRSE; assay: MIC assay (broth microdilution, CLSI); format: cell-based; settings: Staphylococcus epidermidis
[5] = system: Enterococcus faecium (ATCC 700221), VRE; assay: MIC assay (broth microdilution, CLSI); format: cell-based
human red blood cells = assay: Hemolysis assay with red blood cells; settings: human, 1 h, 200 μM, pH 7.2
Protocol: The hemolysis activities of select compounds of the invention were determined. […] The washing was repeated three times with the buffer. In 96-well plate, test compounds were added to the buffer from DMSO stocks. […] The plate was then incubated for 1 hour at 37° C. After incubation, the plate was centrifuged for 5 minutes at 3,500 rpm. Then 80 μL of the supernatant was transferred to another 96-well plate, and the optical density (OD) was read at 405 nm. DMSO served as the negative control (0% hemolysis), while Triton X served as the positive control (100% hemolysis). The percent of hemolysis was calculated as (OD405 of the compound−OD405 of DMSO)/(OD405 of Triton X−OD405 of the buffer).
The washing was repeated three times with the buffer. In 96-well plate, test compounds were added to the buffer from DMSO stocks. […] The plate was then incubated for 1 hour at 37° C. After incubation, the plate was centrifuged for 5 minutes at 3,500 rpm. Then 80 μL of the supernatant was transferred to another 96-well plate and the optical density (OD) was read at 405 nm. DMSO served as our negative control (0% hemolysis) while Triton X served as our positive control (100% hemolysis). The percent of hemolysis was calculated as (OD405 of the test compound−OD405 DMSO)/(OD405 Triton X−OD405 buffer) from three independent experiments.

[6] = system: MRSA-2 planktonic cells and biofilms; assay: Calgary Biofilm Device (CBD) assay, MBC/MBEC; format: cell-based, Staphylococcus aureus; settings: for MBC: Staphylococcus aureus, MRSA
MRSA BAA-1707 = assay: MIC assay (broth microdilution, CLSI); settings: Staphylococcus aureus, read-out: MIC, MRSA BAA-1707
MRSA BAA-44 = assay: MIC assay (broth microdilution, CLSI); settings: Staphylococcus aureus, read-out: MIC, MRSA BAA-44
in vitro = format: cell-based; settings: human
Protocol: (§1) The cytotoxicities of select compounds of the invention against HeLa cells were determined. HeLa cytotoxicity was assessed using the LDH release assay described by CYTOTOX96 (Promega G1780). HeLa cells were grown in Dulbecco's Modified Eagle Medium (DMEM; Gibco) supplemented with 10% Fetal Bovine Serum (FBS) at 37° C. with 5% CO2. […] Triton X-100 (at 2% v/v) was used as the positive control for maximum lactate dehydrogenate (LDH) activity in this assay (e.g., complete cell death), while “medium only” lanes served as negative control lanes (e.g., no cell death). DMSO was used as the vehicle control. […] Finally, Stop Solution (50 μL) was added to the incubating plates, and the absorbance was measured at 490 nm.
(§2) HeLa cytotoxicity was assessed using the LDH release assay described by CYTOTOX96 (Promega G1780). HeLa cells were grown in Dulbecco's Modified Eagle Medium (DMEM; Gibco) supplemented with 10% Fetal Bovine Serum (FBS) at 37° C. with 5% CO2. […] Triton X-100 (at 2% v/v) was used as the positive control for maximum lactate dehydrogenate (LDH) activity in this assay (e.g., complete cell death), while “medium only” lanes served as negative control lanes (e.g., no cell death). DMSO was used as our vehicle control. […] Finally, Stop Solution (50 μL) was added to the incubating plates and the absorbance was measured at 490 nm. Results are from three independent experiments (FIG. 19)

HeLa cells = assay: in vitro; format: cell-based; settings: human, 24 h
Protocol: as §1, §2

[7] = system: MRSE (S. epidermidis ATCC 35984) planktonic cells and biofilms; assay: Calgary Biofilm Device (CBD) assay, MBC/MBEC; format: cell-based, Staphylococcus epidermidis; settings: Staphylococcus epidermidis; Table 8; read-out: MRSE 35984 MBC
[8] = system: VRE (E. faecium ATCC 700221) planktonic cells and biofilms; assay: Calgary Biofilm Device (CBD) assay, MBC/MBEC; format: cell-based, Enterococcus faecium; settings: Enterococcus; Table 8; c lowest concentration tested; read-out: VRE 700221 MBC
[9] = Table 7, a midpoint of 2-fold range, b lowest concentration tested
[10] = Table 2A, read-out: MIC, Staphylococcus epidermidis (ATCC 12228)
[11] = Table 7, b lowest concentration tested, read-out: MIC, S. epidermidis 12228
[12] = Table 2A, read-out: MIC, Staphylococcus epidermidis (ATCC 35984)
[13] = Table 7, read-out: MIC, MRSE 35984
[14] = Enterococcus faecium, Table 2A, read-out: MIC, Enterococcus faecium (ATCC 700221)
[15] = Table 7, b lowest concentration tested, read-out: MIC, VRE 700221
[16] = Table 8, a/b 2-/4-fold range in independent experiments, read-out: MRSA-2 MBC

| SMILES | MIC ([1]; Table 2A) | MIC [1, 9] | MIC [2] | MIC [3, 10] | MIC [3, 11] | MIC [4, 12] | MIC [4, 13] | MIC [5, 14] | MIC [5, 15] | % Hemolysis (200 μM) (human red blood cells) | % Hemolysis at 200 μM (human red blood cells) | MBC ([6]; Table 4, read-out: MBC, MRSA-2) | MBC [6, 16] | MBEC:MBC ratio, MRSA-2 ([6]; Table 4) | melting point | MIC (MRSA BAA-1707) | MIC (MRSA BAA-44) | IC50 at 24 h (in vitro) | IC50 (HeLa cells) | MBC [7] | other results |
| --- | --- | --- | --- | --- | --- | --- | --- | --- | --- | --- | --- | --- | --- | --- | --- | --- | --- | --- | --- | --- | --- |
| Oc1c(Cl)cc(Cl)c2nc3ccccc3nc12 [Compound 3, 2,4-Dichloro-1-hydroxyphenazine] | 3.13 µM (≈ 0.83 µg/mL) | 3.13 µM (≈ 0.83 µg/mL) | 3.13 µM (≈ 0.83 µg/mL) | 3.13 µM (≈ 0.83 µg/mL) | 3.13 µM (≈ 0.83 µg/mL) | 3.13 µM (≈ 0.83 µg/mL) | 3.13 µM (≈ 0.83 µg/mL) | 12.5 µM (≈ 3.31 µg/mL) | 12.5 µM (≈ 3.31 µg/mL) | ≤1% | ≤1% | 62.5 µM (≈ 16.6 µg/mL) | 62.5 µM (≈ 16.6 µg/mL) | >16.0 | 205 to 207 °C | 3.13 µM (≈ 0.83 µg/mL) | 3.13 µM (≈ 0.83 µg/mL) |  |  |  |  |
| Oc1c(Cl)cc(Br)c2nc3ccccc3nc12 [Compound 5, 4-Bromo-2-chloro-1-hydroxyphenazine] |  |  |  | 3.13 µM (≈ 0.969 µg/mL) | 3.13 µM (≈ 0.969 µg/mL) |  |  | 6.25 µM (≈ 1.93 µg/mL) | 6.25 µM (≈ 1.93 µg/mL) | ≤1% | ≤1% | 62.5 µM (≈ 19.3 µg/mL) | 62.5 µM (≈ 19.3 µg/mL) |  | 229 to 231 °C |  | 3.13 µM (≈ 0.969 µg/mL) | > 100 µM | > 100 µM | 31.3 µM (≈ 9.69 µg/mL) | MBC [8]: 11.7 µM (≈ 3.62 µg/mL) |
| Oc1c(Cl)cc(I)c2nc3ccccc3nc12 [Compound 6, 2-Chloro-4-iodo-1-hydroxyphenazine] | 1.56 µM (≈ 0.556 µg/mL) | 1.56 µM (≈ 0.556 µg/mL) | 1.56 µM (≈ 0.556 µg/mL) | 1.56 µM (≈ 0.556 µg/mL) | 1.56 µM (≈ 0.556 µg/mL) | 1.56 µM (≈ 0.556 µg/mL) | 1.56 µM (≈ 0.556 µg/mL) | 6.25 µM (≈ 2.23 µg/mL) | 6.25 µM (≈ 2.23 µg/mL) | 5.1% |  | 15.6 µM (≈ 5.56 µg/mL) | 15.6 µM (≈ 5.56 µg/mL) | 8.0 | 183 to 185 °C | 1.56 µM (≈ 0.556 µg/mL) | 1.56 µM (≈ 0.556 µg/mL) | > 100 µM | > 100 µM |  |  |
| Oc1c(I)cc(Cl)c2nc3ccccc3nc12 [Compound 9, 4-Chloro-2-iodo-1-hydroxyphenazine] | 25 µM (≈ 8.91 µg/mL) | 25 µM (≈ 8.91 µg/mL) |  | 25 µM (≈ 8.91 µg/mL) | 25 µM (≈ 8.91 µg/mL) | 25 µM (≈ 8.91 µg/mL) | 25 µM (≈ 8.91 µg/mL) | 6.25 µM (≈ 2.23 µg/mL) | 6.25 µM (≈ 2.23 µg/mL) | ≤1% | ≤1% | 93.8 µM (≈ 33.4 µg/mL) | 93.8 µM (≈ 33.4 µg/mL) | 2.7 | 175 to 177 °C | 3.13 µM (≈ 1.12 µg/mL) | 12.5 µM (≈ 4.46 µg/mL) |  |  | 125 µM (≈ 44.6 µg/mL) |  |
